Source: patent US8372455B2, “Cosmetic composition with anti-free radical activity” (LVMH Recherche, priority 2006, dated 2013)

These compounds were tested on human keratinocytes (HaCaT) (assay: Antioxidizing power (free radical scavenging) in H2O2-treated keratinocytes with the DCFH-DA fluorescent probe). Settings: 24 h treatment, 0.05 mg/ml ebselen, extract of Emblica, extract of Edelweiss, 0.1 μg/ml tocotrienol, idebenone, N-acetylcysteine, N=6, FIG. 1.
Assay type: cell-based
From the text: To do this, the inventors used an in vitro test on a model of human keratinocytes, which consisted in the in situ generation of free radicals in the presence and absence of substances with anti-free radical activity, and then in quantification, with the aid of a fluorescent probe of the type dichlorofluorescein diacetate (DCFH-DA), of the free radicals still present in the cells. This probe is well known to those skilled in the art and its use makes it possible to measure the amount of free radicals present as a function of the fluorescence signal emitted.
The antioxidizing power according to the invention, which corresponds in practice to the free radical scavenging power of each substance with anti-free radical activity or an association of such substances, is obtained using the following formula (A): antioxidizing power=([…])×100 (A) in which: Δ control=difference in fluorescence values between the control not treated with an active substance or an association of such substances, and the control treated with the reference oxidizing agent hydrogen peroxide (H2O2); Δ test=difference in fluorescence values between the control treated with an active substance or an association of active substances, and the control treated with H2O2.
In practice, the value of Δ control represents the situation where the oxidation is greatest. This value is to be considered as that of 100% oxidation. It is then possible, by taking the ratio ([…])×100, to determine the percentage oxidation in the presence of an active substance or an association of such active substances. The antioxidizing power can then be calculated as the difference from the maximum value of 100, corresponding to application of the above formula. […]
The fluorescence emitted is then directly proportional to the concentration of free radicals that has reacted in the medium.
Thus, in the presence of a substance with anti-free radical activity, the DCFH present in the medium encounters fewer free radicals and the value of the fluorescence signal emitted decreases as a consequence. […]

Compound	protective power (antioxidizing power) of individual substances with anti-free radical activity
CC(=O)N[C@@H](CS)C(=O)O [N-acetylcysteine]	weakly protective
COC1=C(OC)C(=O)C(CCCCCCCCCCO)=C(C)C1=O [idebenone, 2,3-dimethoxy-6-(10-hydroxydecyl)-5-methyl-1,4-benzo-quinone]	weakly protective
alpha-tocotrienol	relatively high protective power
